Earlier results on one compound are cited in US20230025286A1, “PHARMACEUTICAL COMPOSITION COMPRISING ELTROMBOPAG BIS(MONOETHANOLAMINE)” (SYNTHON B.V., priority 2019, published 2023).

For data set [1] the following is noted: background statement, no method or value given.
For data set [2] the following is noted: background statement, no method or value given. This is another data set of the same source.

For `CC1=NN(c2ccc(C)c(C)c2)C(=O)/C1=N\Nc1cccc(-c2cccc(C(=O)O)c2)c1O.NCCO.NCCO` [Eltrombopag bis(monoethanolamine), 3′-{(2Z)-2-[1-(3,4-dimethylphenyl)-3-methyl-5-oxo-1,5-dihydro-4H-pyrazol-4-ylidene]hydrazino}-2′-hydroxy-3-biphenylcarboxylic acid bis(monoethanolamine)], the permeability result in data set [1] is “medium”. Besides, the solubility result in data set [2] is recorded as “low”.
